PMC7613620, “Reaction hijacking of tyrosine tRNA synthetase as a whole-of-life-cycle antimalarial strategy” (Science (New York, N.Y.), 2022)

How the values were obtained:
HepG2 = HepG2 Cell Titer-GLO luminescent cell viability assay; type: cell-based; conditions: Homo sapiens, HepG2, 72 h, read-out: HepG2 (luminescence) IC50(72h)
Description: 561 Mammalian cell culture experiments
562 The HepG2 (Human hepatocyte carcinoma) cell line was procured from ATCC (American Type
563 Culture Collection, Manassas, USA; HB-8065) and viability assessed using Cell Titer-GLO luminescent
564 cell viability assay reagents (Promega, catalogue number: G7570) (47, 48). For the assay, 2000 cells/well
565 were plated in 384-well plates 24 h prior to the experiment and incubated at 37°C in a CO2 incubator. The
566 medium was removed and cells were treated with fresh medium containing either vehicle (0.5% DMSO)
567 or serially diluted test compounds or doxorubicin (1.3 nM to 25 µM) in a final volume of 50 µl/well and
568 further incubated for 72 h at 37°C in a CO2 incubator.
569 were treated with 5 µl of 1% Triton X-100 (final assay conc. 0.1%). Following incubation, 25 µl of medium
570 was discarded and 25 µl of Cell Titer-GLO reagent was added to each well and the plate was kept on a plate
571 shaker for 15 min at 25°C with shaking at 300 rpm. Luminescence signals were measured in a Spectramax
572 M5 reader (Molecular Devices). […]
585 37°C humidified incubator as adherent semi-confluent monolayers in complete Dulbecco’s Modified Eagle
586 Media (c-DMEM). DMEM (Gibco™, Thermo Fisher Scientific, Australia) was supplemented with 10%

[1] = test system: P. falciparum NF54 liver stage parasites; assay: P. falciparum NF54 schizont development in primary human hepatocytes; type: cell-based; conditions: Plasmodium falciparum, NF54, Hepatocyte, 96 h
Solubility = type: physicochemical
[2] = test system: P. falciparum Dd2 PfYRSS234C mutant lines; assay: 72-h sensitivity of CRISPR-edited PfYRSS234C clones; type: cell-based, Plasmodium falciparum; conditions: for IC50: Plasmodium falciparum, DD2, 72 h, 72-h exposure
Description: 700 the drug plate. Lowest drug treatment and a lethal dose of chloroquine (200 nM) served as reference
701 controls. Growth inhibition was analysed after 72 h using the Renilla-Glo(R) Luciferase Assay System (ref
702 no E2750 Promega) and the GloMax® Discover Multimode Microplate Reader (Promega), and IC50 values
703 were obtained from corrected dose-response curves using GraphPad Prism (version 8; GraphPad Software).
705 Generation of PfYRSS234C transfectants
706 CRISPR/Cas9 was used to generate parasites encoding the S234C mutation in exon 2 of PfYRS, as shown
707 in Suppl Figure 6. Two guide RNAs (gRNA1: […] and gRNA2:
708 […]) were selected using Benchling (benchling.com), and cloned into the
709 pDC2-coCas9-gRNA plasmid essentially as described previously (58). A donor template of 645 bp,
710 encompassing the majority of the 708 bp exon 2, was synthesized (ThermoFisher) and cloned into the
711 AatII/EcoRI sites of both the pDC2-coCas9-gRNA1 and pDC2-coCas9-gRNA2 plasmids. In addition to
712 the TCC>TGC (S234C) mutation, additional silent shield mutations were introduced to prevent gRNA-
713 Cas9 complex binding, as shown in Suppl Figure 6. Ring-stage P. falciparum parasites (Dd2 strain) at 10%
714 parasitemia (150 µL of packed cells) were transfected with 50 µg of plasmid DNA using a BioRad Gene
715 Pulser II (310 V, 950 µF), and selected with 5 nM WR99210 (Jacobus Pharmaceuticals) for 8 days, after
716 which culture was continued without drug pressure until transfectants were obtained. Clones of the
717 PfYRSS234C mutant parasites were isolated by limiting dilution and verified by Sanger sequencing. […]
729 Cam 3.II_Rev (25) trophozoite-infected RBCs (25-30 h p.i.) were incubated with inhibitor for 3 h at 10%
730 hematocrit and 5% parasitemia. The RBC pellet was washed 3 x in PBS + cOmplete. Cells were centrifuged
731 at 380 x g for 5 min and the pelleted cells lysed by resuspension in PBS + 0.05% saponin for 5 min on ice.

PfYRS = PfYRS (Plasmodium falciparum, UniProt Q8IAR7); assay: biochemical; type: binding; conditions: PfYRS incubated with ML901 in the presence of Tyr, ATP and tRNATyr
Sequence of PfYRS (Q8IAR7 entry or part of it): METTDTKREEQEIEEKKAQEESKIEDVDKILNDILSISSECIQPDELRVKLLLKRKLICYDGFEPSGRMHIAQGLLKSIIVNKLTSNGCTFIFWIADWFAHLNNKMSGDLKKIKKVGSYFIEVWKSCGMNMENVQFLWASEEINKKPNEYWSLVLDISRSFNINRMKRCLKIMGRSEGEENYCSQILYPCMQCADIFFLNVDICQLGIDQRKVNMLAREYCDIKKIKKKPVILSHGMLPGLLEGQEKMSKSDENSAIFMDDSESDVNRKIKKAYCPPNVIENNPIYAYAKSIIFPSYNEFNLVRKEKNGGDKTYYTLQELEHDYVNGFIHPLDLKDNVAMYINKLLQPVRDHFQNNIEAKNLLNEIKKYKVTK
Description: 804 An intron was detected in the PftRNATyr sequence, that was not indicated in PlasmoDB. A T7 RNA
805 polymerase promoter sequence was added to the 5’ end of the DNA sequence of P. falciparum and H.
806 sapiens tRNATyr. This DNA template and its complementary strand were custom-synthesized by Sigma-
807 Aldrich. Two oligonucleotides were annealed at 95°C for 5 min and the double-stranded DNA template
808 was used for in vitro transcription. The transcription reaction was incubated at 37°C overnight. The reaction
809 mixture consists of template DNA, T7 RNA polymerase and NTP mix as per manufacturer's instructions
810 (HiScribe™ T7 Quick High Yield RNA Synthesis Kit, NEB). On the following day, the reaction mixture
811 was treated with DNase I at 37°C for 15 min. tRNA was purified using RNA clean-up spin columns
812 (Monarch® RNA Cleanup Kit, NEB) to remove contaminants from the transcription reaction.
814 Differential scanning fluorimetry (DSF)
815 PfYRS and HsYRS at 0.1 mg/ml were incubated with various substrates at 37°C for 1-3 h. PfYRS was
816 assayed in 25 mM Tris, pH 8, 150 mM NaCl, 5 mM MgCl2 and 1 mM TCEP. HsYRS was assayed in 50
817 mM Tris, pH 7.5, 150 mM NaCl, 50 mM KCl, 5 mM MgCl2 and 1 mM TCEP. SYPRO Orange (Sigma-
818 Aldrich; 5,000X concentrate in DMSO) was added to the reaction mixture at a final concentration of 2.5X.
819 25 µL of the sample was added into each well of a 96-well qPCR plate (Applied Biosystems). The plate
820 was sealed and analysed using StepOnePlus Real-Time PCR system (Applied Biosystems). The samples
821 were heated from 20°C to 90°C with a 1% continuous gradient. The thermal unfolding curve was plotted
822 as the first derivative curve of the raw fluorescence values. The melting temperature (Tm), defined as the
823 peak of the first derivative curve, was used to assess the thermal stability of protein-ligand complexes. KD
824 values were calculated from DTm using the equation: ln(KD/[L]) = -131.5 x (∆Tm/Tm,apo) - 1.9, where [L]
825 is the concentration of ligand and T is the temperature in Kelvin (40). […]

Structure (SMILES): Nc1ncnc2c1c(OC(F)F)nn2[C@@H]1O[C@H](COS(N)(=O)=O)[C@@H](O)[C@H]1O [ML901]
- IC50 (HepG2): 1630 nM
- IC50 [1]: 13 ± 5 nM
- solubility (Solubility): > 200 µM
- decreased sensitivity of PfYRSS234C transfectants ([2]; Dd2 parent transfectants harboring PfYRSS234C): 10 fold
- IC50 ([2]; Mutant E12 (PfYRSS234C)): 22 ± 1 nM
- IC50 ([2]; Mutant F5 (PfYRSS234C)): 22 ± 3 nM
- IC50 ([2]; Mutant G12 (PfYRSS234C)): 20 ± 1 nM
- increase of apparent protein melting point (Tm) (PfYRS): 15 °C
